According to the NIST ThermoML archive (doi:10.1021/je060271a):

Settings: 283.15 K, Liquid, Vibrating tube method

CCCC(=O)OCC(COC(=O)CCC)(COC(=O)CCC)COC(=O)CCC [pentaerythritol tetrabutyrate]
Settings	mass density [kg/m3]
26946 kPa	1074.1
26974 kPa	1074.2
26998 kPa	1074.3
27022 kPa	1074.2
27050 kPa	1074.3
27074 kPa	1074.2
27098 kPa	1074.2
27122 kPa	1074.3
27151 kPa	1074.2
27174 kPa	1074.3
27198 kPa	1074.2
27228 kPa	1074.3
27248 kPa	1074.3
27267 kPa	1074.4
27296 kPa	1074.4
27330 kPa	1074.3
27354 kPa	1074.3
27384 kPa	1074.5
27408 kPa	1074.4
27433 kPa	1074.5
27463 kPa	1074.4
27488 kPa	1074.4
27512 kPa	1074.4
27542 kPa	1074.4
27566 kPa	1074.6
27592 kPa	1074.5
27622 kPa	1074.5
27646 kPa	1074.5
27672 kPa	1074.6
27701 kPa	1074.7
27726 kPa	1074.6
27752 kPa	1074.6
27782 kPa	1074.5
27808 kPa	1074.6
27833 kPa	1074.6
27863 kPa	1074.6
27889 kPa	1074.6
27915 kPa	1074.7
27941 kPa	1074.7
27972 kPa	1074.8
27998 kPa	1074.6
28024 kPa	1074.7
28049 kPa	1074.8
28080 kPa	1074.8
28101 kPa	1074.7
28127 kPa	1074.7
28164 kPa	1074.8
28190 kPa	1074.8
28217 kPa	1074.7
28249 kPa	1074.7
28276 kPa	1074.8
28303 kPa	1074.9
28329 kPa	1074.9
28356 kPa	1075
28388 kPa	1074.9
28415 kPa	1074.9
28447 kPa	1075
28474 kPa	1075.1
28500 kPa	1075
28527 kPa	1075
28559 kPa	1075.1
28586 kPa	1075
28618 kPa	1075.1
28646 kPa	1075.1
28674 kPa	1075.2
28706 kPa	1075.1
28733 kPa	1075
28760 kPa	1075.2
28787 kPa	1075.2
28820 kPa	1075.2
28847 kPa	1075.2
28881 kPa	1075.2
28908 kPa	1075.1
28936 kPa	1075.1
28969 kPa	1075.2
28985 kPa	1075.3
28997 kPa	1075.2
29011 kPa	1075.2
29026 kPa	1075.1
29043 kPa	1075.2
29054 kPa	1075.3
29088 kPa	1075.3
29116 kPa	1075.3
29146 kPa	1075.2
29150 kPa	1075.4
29179 kPa	1075.3
29207 kPa	1075.3
29240 kPa	1075.3
29253 kPa	1075.5
29268 kPa	1075.4
29296 kPa	1075.4
29322 kPa	1075.4
29330 kPa	1075.5
29357 kPa	1075.4
29385 kPa	1075.6
29417 kPa	1075.4
29442 kPa	1075.4
29443 kPa	1075.6
29464 kPa	1075.4
29471 kPa	1075.6
29482 kPa	1075.7
29505 kPa	1075.5
29534 kPa	1075.5
29557 kPa	1075.5
29562 kPa	1075.6
29590 kPa	1075.5
29625 kPa	1075.6
29628 kPa	1075.6
29649 kPa	1075.5
29655 kPa	1075.6
29683 kPa	1075.6
29711 kPa	1075.5
29718 kPa	1075.7
29748 kPa	1075.7
29778 kPa	1075.5
29786 kPa	1075.7
29808 kPa	1075.6
29843 kPa	1075.7
29859 kPa	1075.7
29872 kPa	1075.7
29901 kPa	1075.7
29931 kPa	1075.8
29943 kPa	1075.7
29966 kPa	1075.7
29996 kPa	1075.8
30016 kPa	1075.8
30031 kPa	1075.7
30034 kPa	1075.7
30037 kPa	1075.8
30045 kPa	1075.9
30052 kPa	1075.8
30061 kPa	1075.8
30091 kPa	1075.8
30121 kPa	1075.8
30158 kPa	1075.9
30189 kPa	1075.9
30208 kPa	1075.9
30219 kPa	1075.9
30250 kPa	1075.8
30282 kPa	1076
30285 kPa	1075.9
30316 kPa	1076
30325 kPa	1076
30346 kPa	1075.9
30381 kPa	1076
30411 kPa	1075.9
